Several values for one entry are separate records, joined by “and”; a condition that tells them apart may be missing. Equal entries are not always repeated. ± gives the expanded uncertainty stated by the source.
Key:
[1] = refractive index (Na D-line) (dimensionless); xn = mol fraction of the nth substance listed; conditions: 101 kPa, Liquid, Standard Abbe refractometry, x2 = 0
[2] = xn = mol fraction of the nth substance listed; conditions: 101 kPa, Liquid, x2 = 0; for speed of sound: Sing-around technique in a fixed-path interferometer
[3] = 101 kPa, Liquid; for speed of sound: Sing-around technique in a fixed-path interferometer
[4] = refractive index (Na D-line) (dimensionless); conditions: 101.33 kPa, Liquid, Standard Abbe refractometry

Row | mass density ([3]; 298.15 K) | speed of sound ([3]; 298.15 K) | mass density ([3]; 303.15 K) | speed of sound ([3]; 303.15 K) | mass density ([3]; 308.15 K) | speed of sound ([3]; 308.15 K) | refractive index ([4]; 298.15 K) | refractive index ([4]; 303.15 K) | refractive index ([4]; 308.15 K) | SMILES | refractive index ([1]; 298.15 K) | refractive index ([1]; 303.15 K) | refractive index ([1]; 308.15 K) | speed of sound ([2]; 298.15 K) | mass density ([2]; 298.15 K) | speed of sound ([2]; 303.15 K) | mass density ([2]; 303.15 K) | speed of sound ([2]; 308.15 K) | mass density ([2]; 308.15 K)
1 | – | – | – | – | – | – | – | – | – | CCCCCCCCCCO [decan-1-ol] + Cc1ccc(O)cc1 | 1.43456 ± 0.00054 | 1.43256 ± 0.00054 | 1.4305 ± 0.00055 | 1379.4 ± 1.1 m/s | 826.526 ± 0.55 kg/m3 | 1362.3 ± 1.1 m/s | 823.101 ± 0.56 kg/m3 | 1345.6 ± 1.1 m/s | 819.671 ± 0.57 kg/m3
2 | 1030.05 ± 0.25 kg/m3 | 1480.9 ± 1 m/s | 1026.09 ± 0.24 kg/m3 | 1465.2 ± 1 m/s | 1022.12 ± 0.23 kg/m3 | 1449.6 ± 1 m/s | 1.538 ± 0.0007 | 1.535 ± 0.0007 | 1.532 ± 0.0007 | Cc1cccc(O)c1 [3-methylphenol] | – | – | – | – | – | – | – | – | –
3 | – | – | – | – | – | – | – | – | – | CCCCCCCCCCO [decan-1-ol] + Cc1ccccc1O | 1.43456 ± 0.00052 | 1.43266 ± 0.00054 | 1.4305 ± 0.00056 | 1379.4 ± 1.1 m/s | 826.526 ± 0.55 kg/m3 | 1362.3 ± 1.1 m/s | 823.101 ± 0.56 kg/m3 | 1345.6 ± 1.1 m/s | 819.671 ± 0.57 kg/m3
4 | – | – | – | – | – | – | – | – | – | CCCCCCCCCCO [decan-1-ol] + Cc1cccc(O)c1 | 1.43456 ± 0.00054 | 1.43256 ± 0.00054 | 1.4305 ± 0.00055 | 1379.4 ± 1.1 m/s | 826.526 ± 0.55 kg/m3 | 1362.3 ± 1.1 m/s | 823.101 ± 0.56 kg/m3 | 1345.6 ± 1.1 m/s | 819.671 ± 0.57 kg/m3
5 | 1030.14 ± 0.49 kg/m3 | 1486.4 ± 1.4 m/s | 1026.28 ± 0.48 kg/m3 | 1470.7 ± 1.4 m/s | 1022.38 ± 0.47 kg/m3 | 1455 ± 1.4 m/s | 1.537 ± 0.00072 | 1.534 ± 0.00072 | 1.531 ± 0.00072 | Cc1ccc(O)cc1 [4-methylphenol] | – | – | – | – | – | – | – | – | –
6 | 989.145 ± 0.25 kg/m3 | 1406.9 ± 1.1 m/s | 984.433 ± 0.26 kg/m3 | 1386.8 ± 1.1 m/s | 979.712 ± 0.27 kg/m3 | 1366.5 ± 1.1 m/s | 1.51495 ± 0.00041 | 1.51395 ± 0.00054 | 1.51095 ± 0.0007 | COc1ccccc1 [anisole] | – | – | – | – | – | – | – | – | –
7 | – | – | – | – | – | – | – | – | – | CCCCCCCCCCO [decan-1-ol] + COc1ccccc1 | 1.43456 ± 0.00054 | 1.43256 ± 0.00054 | 1.4305 ± 0.00055 | 1379.4 ± 1.1 m/s | 826.526 ± 0.55 kg/m3 | 1362.3 ± 1.1 m/s | 823.101 ± 0.56 kg/m3 | 1345.6 ± 1.1 m/s | 819.671 ± 0.57 kg/m3

Row | SMILES | mass density ([3]; 298.15 K) | speed of sound ([3]; 298.15 K) | mass density ([3]; 303.15 K) | speed of sound ([3]; 303.15 K) | mass density ([3]; 308.15 K) | speed of sound ([3]; 308.15 K) | refractive index ([4]; 298.15 K) | refractive index ([4]; 303.15 K) | refractive index ([4]; 308.15 K) | refractive index ([1]; 298.15 K) | refractive index ([1]; 303.15 K) | refractive index ([1]; 308.15 K) | speed of sound ([2]; 298.15 K) | mass density ([2]; 298.15 K) | speed of sound ([2]; 303.15 K) | mass density ([2]; 303.15 K) | speed of sound ([2]; 308.15 K) | mass density ([2]; 308.15 K)
8 | Cc1ccccc1O [2-methylphenol] | 1042.32 ± 0.27 kg/m3 | 1504.6 ± 1.1 m/s | 1036.94 ± 0.26 kg/m3 | 1487.4 ± 1.1 m/s | 1031.55 ± 0.25 kg/m3 | 1470.3 ± 1 m/s | 1.544 ± 0.0007 | 1.54099 ± 0.00078 | 1.53699 ± 0.00087 | – | – | – | – | – | – | – | – | –
9 | CCCCCCCCCCO [decan-1-ol] | 826.526 ± 0.55 kg/m3 | 1379.4 ± 1.1 m/s | 823.101 ± 0.56 kg/m3 | 1362.3 ± 1.1 m/s | 819.671 ± 0.57 kg/m3 | 1345.6 ± 1.1 m/s | 1.43456 ± 0.00054 | 1.43256 ± 0.00054 and 1.43266 ± 0.00054 | 1.4305 ± 0.00055 | – | – | – | – | – | – | – | – | –
